Measured values as given in patent publication US11331299B2, “Medicinal use of serrulatane diterpenes” (The University of Sydney, priority 2016, dated 2022).
Where two headings read alike, the source gives them in different places.

Key:
BAZ2B (h) bromodomain = molecular target: T1, BAZ2B (h) bromodomain (Homo sapiens, UniProt Q9UIF8); assay: Epigenetic binding assay, Bromodomain; conditions: read-out: % Inhibition of Control Specific Binding
T1 construct: Bromodomain
T1 sequence (Q9UIF8 2060-2164 limits assumed): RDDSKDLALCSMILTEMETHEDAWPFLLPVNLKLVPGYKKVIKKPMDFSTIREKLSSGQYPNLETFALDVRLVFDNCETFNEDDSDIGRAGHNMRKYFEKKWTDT

FALZ (h) bromodomain = molecular target: T2, FALZ (h) bromodomain (Homo sapiens, UniProt Q12830); assay: Epigenetic binding assay, Bromodomain; conditions: 10 μM; read-out: % Inhibition of Control Specific Binding
T2 construct: Bromodomain; Eurofins CEREP (France), contract laboratory

CBX7 (h) chromodomain = molecular target: T3, CBX7 (h) chromodomain (Homo sapiens, UniProt O95931); assay: Epigenetic binding assay, Chromodomain; conditions: read-out: % Inhibition of Control Specific Binding
T3 construct: Recognition and specificity determinants of the human cbx chromodomains; Eurofins CEREP (France), contract laboratory
T3 sequence (O95931 11-69 limits assumed): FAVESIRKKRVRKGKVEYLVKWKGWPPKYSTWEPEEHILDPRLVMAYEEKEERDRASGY

LSD1 (h) = LSD1 (h) (Homo sapiens, UniProt O60341); assay: Epigenetic enzyme assay, Demethylases (KDMs); assay type: biochemical; conditions: read-out: % Inhibition of Control Values
HDAC5 (h) = HDAC5 (h) (Homo sapiens, UniProt Q9UQL6); assay: Epigenetic enzyme assay, Histone deacetylase (HDACs); assay type: biochemical; conditions: read-out: % Inhibition of Control Values
MLL2(h) complex = assay: Epigenetic enzyme assay, Methyltransferases (MTs); assay type: biochemical, human; conditions: for % Inhibition of Control Values: 10 μM
PRMT3 (h) = PRMT3 (h) (Homo sapiens, UniProt O60678); assay: Epigenetic enzyme assay, Methyltransferases (MTs); assay type: biochemical; conditions: for inhibition at 10 µM: read-out: % Inhibition of Control Values
PRMT5 complex (h) = PRMT5 complex (h) (Homo sapiens, UniProt O14744); assay: Epigenetic enzyme assay, Methyltransferases (MTs); assay type: biochemical; conditions: read-out: % Inhibition of Control Values
[1] = molecular target: Aurora B (h) (substrate histone H3 full length) (Homo sapiens, UniProt Q96GD4); assay: Epigenetic enzyme assay, Kinases; assay type: biochemical; conditions: read-out: % Inhibition of Control Values
[2] = molecular target: PKBgamma/AKT3(h) (substrate histone H3 full length) (Homo sapiens, UniProt Q9Y243); assay: Epigenetic enzyme assay, Kinases; assay type: biochemical; conditions: read-out: % Inhibition of Control Values
[3] = molecular target: T4, Catechol O-methyltransferase (h) (Homo sapiens, UniProt P21964); assay: Epigenetic enzyme assay, Small molecule methyltransferases; assay type: biochemical; conditions: read-out: % Inhibition of Control Values
T4 sequence (P21964 1-271): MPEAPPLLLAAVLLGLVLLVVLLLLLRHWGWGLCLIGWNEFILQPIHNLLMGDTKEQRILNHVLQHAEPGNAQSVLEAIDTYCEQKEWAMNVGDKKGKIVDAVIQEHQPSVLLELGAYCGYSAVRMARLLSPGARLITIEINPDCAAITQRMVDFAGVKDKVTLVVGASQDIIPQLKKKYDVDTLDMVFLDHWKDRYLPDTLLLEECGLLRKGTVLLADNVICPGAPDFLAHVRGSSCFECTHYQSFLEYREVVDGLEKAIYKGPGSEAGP

USP 14 (h) = USP 14 (h) (Homo sapiens, UniProt P54578); assay: Epigenetic enzyme assay, Ubiquitin modifying enzymes; assay type: biochemical; conditions: 10 μM; read-out: % Inhibition of Control Values
USP 16 (h) = USP 16 (h) (Homo sapiens, UniProt Q9Y5T5); assay: as above; assay type: biochemical; conditions: 10 μM; read-out: % Inhibition of Control Values
USP 7 (h) = USP 7 (h) (Homo sapiens, UniProt Q93009); assay: as above; assay type: biochemical; conditions: 10 μM; read-out: % Inhibition of Control Values
[4] = test system: Catechol-O-Methyl Transferase (COMT); assay: Catechol-O-Methyl Transferase (COMT); assay type: biochemical, Porcine; conditions: 10 μM; assay year 2015
Experimental: (§1) The in vitro pharmacological studies were conducted by Eurofins PanLab (Taiwan) using the parameters shown in Table 13 with respect to appropriate literature references.

Myeloperoxidase = molecular target: T5, Myeloperoxidase (Homo sapiens, UniProt P05164); assay: Myeloperoxidase; assay type: biochemical
T5 construct: Human PMN leukocytes; from tissue; host or cells: human PMN leukocytes
T5 sequence (P05164 49-745): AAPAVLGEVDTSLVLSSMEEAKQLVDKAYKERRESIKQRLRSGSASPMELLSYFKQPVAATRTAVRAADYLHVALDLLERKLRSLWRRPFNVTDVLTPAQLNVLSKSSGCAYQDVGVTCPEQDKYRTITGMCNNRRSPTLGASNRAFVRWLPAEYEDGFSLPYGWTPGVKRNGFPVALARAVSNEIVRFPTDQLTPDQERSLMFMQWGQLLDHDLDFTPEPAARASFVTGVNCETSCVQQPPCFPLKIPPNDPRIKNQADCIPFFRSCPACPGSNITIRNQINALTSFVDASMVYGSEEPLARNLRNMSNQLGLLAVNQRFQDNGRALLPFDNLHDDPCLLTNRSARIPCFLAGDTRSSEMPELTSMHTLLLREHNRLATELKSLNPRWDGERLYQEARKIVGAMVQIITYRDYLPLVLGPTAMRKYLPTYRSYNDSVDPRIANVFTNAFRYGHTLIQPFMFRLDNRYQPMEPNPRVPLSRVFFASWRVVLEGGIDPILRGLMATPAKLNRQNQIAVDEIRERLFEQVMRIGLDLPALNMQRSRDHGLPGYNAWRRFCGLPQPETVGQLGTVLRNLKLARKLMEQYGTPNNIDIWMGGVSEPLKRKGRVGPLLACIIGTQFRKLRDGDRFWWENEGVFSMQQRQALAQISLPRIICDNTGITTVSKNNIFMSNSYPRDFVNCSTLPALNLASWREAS
Experimental: as §1

NF-κB = assay: Transcription Response, NF-κB; assay type: cell-based, Human
Experimental: as §1

Hs 729 = assay: OncoPanel cell proliferation assay (10-day); assay type: cell-based, human; conditions: for EC50 / GI50 / IC50: Homo sapiens, Hs 729, Soft Tissue - Sarcoma; for EC50: read-out: Cell Count EC50; for GI50: read-out: Cell Count GI50; for IC50: read-out: Cell Count IC50
[5] = assay year 2014, read-out: % Control Response
[6] = assay year 2015, read-out: % Control Response

Sequence of USP 16 (h) (Q9Y5T5 whole entry): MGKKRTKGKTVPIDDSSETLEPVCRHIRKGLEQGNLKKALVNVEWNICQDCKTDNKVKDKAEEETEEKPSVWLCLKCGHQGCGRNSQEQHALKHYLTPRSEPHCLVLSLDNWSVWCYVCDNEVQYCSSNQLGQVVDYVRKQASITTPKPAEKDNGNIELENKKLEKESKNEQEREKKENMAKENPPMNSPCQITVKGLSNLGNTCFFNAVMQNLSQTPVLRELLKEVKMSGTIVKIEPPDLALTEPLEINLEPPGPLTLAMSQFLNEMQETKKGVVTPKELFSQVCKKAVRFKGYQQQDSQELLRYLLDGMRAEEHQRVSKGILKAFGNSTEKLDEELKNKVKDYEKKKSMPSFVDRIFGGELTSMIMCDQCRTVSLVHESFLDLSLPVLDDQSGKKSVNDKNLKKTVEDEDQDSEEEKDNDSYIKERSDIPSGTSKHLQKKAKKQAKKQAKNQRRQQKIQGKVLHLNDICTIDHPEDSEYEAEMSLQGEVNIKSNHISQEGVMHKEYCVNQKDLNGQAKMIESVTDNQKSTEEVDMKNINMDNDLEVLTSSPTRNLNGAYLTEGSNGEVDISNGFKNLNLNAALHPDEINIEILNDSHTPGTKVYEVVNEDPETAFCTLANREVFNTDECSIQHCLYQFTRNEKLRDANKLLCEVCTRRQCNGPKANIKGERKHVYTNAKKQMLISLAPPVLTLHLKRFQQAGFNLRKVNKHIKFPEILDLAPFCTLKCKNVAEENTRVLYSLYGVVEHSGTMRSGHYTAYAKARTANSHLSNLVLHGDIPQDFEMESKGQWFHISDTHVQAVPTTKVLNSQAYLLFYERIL
Sequence of PRMT5 complex (h) (O14744 whole entry): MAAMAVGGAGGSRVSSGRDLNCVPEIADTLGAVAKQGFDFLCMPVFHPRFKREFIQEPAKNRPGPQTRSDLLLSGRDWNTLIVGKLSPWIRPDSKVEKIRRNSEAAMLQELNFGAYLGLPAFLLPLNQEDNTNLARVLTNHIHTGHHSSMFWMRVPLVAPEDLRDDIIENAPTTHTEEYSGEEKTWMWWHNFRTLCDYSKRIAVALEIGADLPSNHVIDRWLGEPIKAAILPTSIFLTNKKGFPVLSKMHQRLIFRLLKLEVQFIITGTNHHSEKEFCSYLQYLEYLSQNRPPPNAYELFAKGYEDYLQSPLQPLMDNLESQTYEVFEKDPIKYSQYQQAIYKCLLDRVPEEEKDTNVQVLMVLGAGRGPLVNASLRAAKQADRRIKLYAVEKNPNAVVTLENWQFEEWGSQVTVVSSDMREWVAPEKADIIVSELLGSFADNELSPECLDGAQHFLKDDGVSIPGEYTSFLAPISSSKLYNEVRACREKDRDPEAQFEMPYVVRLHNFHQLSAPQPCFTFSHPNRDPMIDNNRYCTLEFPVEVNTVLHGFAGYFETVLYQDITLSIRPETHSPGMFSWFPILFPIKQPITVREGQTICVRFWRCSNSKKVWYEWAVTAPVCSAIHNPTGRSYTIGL
Sequence of PRMT5 complex (h) (Q9BQA1 whole entry partner): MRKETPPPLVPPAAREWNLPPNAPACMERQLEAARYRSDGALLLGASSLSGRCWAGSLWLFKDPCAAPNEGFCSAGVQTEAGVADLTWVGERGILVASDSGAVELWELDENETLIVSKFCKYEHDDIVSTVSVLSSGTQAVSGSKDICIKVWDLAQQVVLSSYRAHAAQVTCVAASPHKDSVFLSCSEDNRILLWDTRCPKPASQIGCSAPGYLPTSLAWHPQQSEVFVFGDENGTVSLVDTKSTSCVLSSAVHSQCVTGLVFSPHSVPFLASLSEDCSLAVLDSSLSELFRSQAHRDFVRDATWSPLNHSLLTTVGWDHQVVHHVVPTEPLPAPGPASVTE
Sequence of USP 14 (h) (P54578 whole entry): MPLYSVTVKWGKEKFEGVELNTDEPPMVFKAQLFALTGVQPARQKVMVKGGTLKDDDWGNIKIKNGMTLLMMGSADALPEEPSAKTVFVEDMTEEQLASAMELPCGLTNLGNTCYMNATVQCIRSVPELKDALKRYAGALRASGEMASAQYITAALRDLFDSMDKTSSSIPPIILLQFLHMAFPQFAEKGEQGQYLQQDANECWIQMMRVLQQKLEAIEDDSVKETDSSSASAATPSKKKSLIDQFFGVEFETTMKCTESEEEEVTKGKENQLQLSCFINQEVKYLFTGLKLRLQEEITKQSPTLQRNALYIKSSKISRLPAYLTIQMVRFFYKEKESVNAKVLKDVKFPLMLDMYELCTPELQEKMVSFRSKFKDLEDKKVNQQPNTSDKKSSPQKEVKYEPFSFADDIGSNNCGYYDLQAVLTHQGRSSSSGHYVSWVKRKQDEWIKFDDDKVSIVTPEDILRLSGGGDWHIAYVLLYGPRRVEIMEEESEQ
Sequence of Aurora B (h) (substrate histone H3 full length) (Q96GD4 whole entry): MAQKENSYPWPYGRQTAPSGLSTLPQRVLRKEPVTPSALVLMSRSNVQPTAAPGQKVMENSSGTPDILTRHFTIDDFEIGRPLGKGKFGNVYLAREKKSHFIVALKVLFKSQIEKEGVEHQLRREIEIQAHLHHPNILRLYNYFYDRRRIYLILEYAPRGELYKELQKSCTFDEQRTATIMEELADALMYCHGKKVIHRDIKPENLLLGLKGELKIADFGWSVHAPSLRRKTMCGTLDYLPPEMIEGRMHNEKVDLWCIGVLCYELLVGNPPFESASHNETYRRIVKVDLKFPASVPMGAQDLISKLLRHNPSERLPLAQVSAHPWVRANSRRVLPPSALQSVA
Sequence of HDAC5 (h) (Q9UQL6 whole entry): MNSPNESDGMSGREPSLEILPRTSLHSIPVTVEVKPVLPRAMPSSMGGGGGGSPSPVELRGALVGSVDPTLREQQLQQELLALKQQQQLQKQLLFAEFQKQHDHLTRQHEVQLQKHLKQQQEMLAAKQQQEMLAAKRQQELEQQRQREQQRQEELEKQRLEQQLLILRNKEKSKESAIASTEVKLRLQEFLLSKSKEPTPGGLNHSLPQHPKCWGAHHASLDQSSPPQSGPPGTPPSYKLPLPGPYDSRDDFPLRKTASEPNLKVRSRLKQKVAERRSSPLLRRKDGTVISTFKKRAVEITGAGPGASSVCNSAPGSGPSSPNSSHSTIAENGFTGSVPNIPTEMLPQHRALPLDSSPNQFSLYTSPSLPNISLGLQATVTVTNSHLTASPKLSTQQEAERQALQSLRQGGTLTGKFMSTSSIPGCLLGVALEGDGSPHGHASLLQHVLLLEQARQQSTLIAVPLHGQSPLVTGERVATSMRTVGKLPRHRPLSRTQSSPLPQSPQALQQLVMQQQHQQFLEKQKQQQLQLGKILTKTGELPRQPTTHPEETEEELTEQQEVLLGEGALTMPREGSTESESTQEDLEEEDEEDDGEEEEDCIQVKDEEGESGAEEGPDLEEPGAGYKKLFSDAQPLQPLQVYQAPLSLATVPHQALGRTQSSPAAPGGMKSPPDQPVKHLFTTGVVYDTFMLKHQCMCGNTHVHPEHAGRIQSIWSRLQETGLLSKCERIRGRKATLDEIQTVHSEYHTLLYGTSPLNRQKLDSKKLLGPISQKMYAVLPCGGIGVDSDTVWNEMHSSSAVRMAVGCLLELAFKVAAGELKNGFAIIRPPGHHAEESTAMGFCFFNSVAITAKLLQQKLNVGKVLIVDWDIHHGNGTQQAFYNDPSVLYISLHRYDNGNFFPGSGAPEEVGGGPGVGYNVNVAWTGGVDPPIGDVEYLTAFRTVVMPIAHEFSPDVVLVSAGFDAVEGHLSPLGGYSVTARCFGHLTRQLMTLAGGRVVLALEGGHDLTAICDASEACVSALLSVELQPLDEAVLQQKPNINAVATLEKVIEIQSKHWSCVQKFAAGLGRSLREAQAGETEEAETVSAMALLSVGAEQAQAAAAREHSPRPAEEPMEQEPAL
Sequence of USP 7 (h) (Q93009 whole entry): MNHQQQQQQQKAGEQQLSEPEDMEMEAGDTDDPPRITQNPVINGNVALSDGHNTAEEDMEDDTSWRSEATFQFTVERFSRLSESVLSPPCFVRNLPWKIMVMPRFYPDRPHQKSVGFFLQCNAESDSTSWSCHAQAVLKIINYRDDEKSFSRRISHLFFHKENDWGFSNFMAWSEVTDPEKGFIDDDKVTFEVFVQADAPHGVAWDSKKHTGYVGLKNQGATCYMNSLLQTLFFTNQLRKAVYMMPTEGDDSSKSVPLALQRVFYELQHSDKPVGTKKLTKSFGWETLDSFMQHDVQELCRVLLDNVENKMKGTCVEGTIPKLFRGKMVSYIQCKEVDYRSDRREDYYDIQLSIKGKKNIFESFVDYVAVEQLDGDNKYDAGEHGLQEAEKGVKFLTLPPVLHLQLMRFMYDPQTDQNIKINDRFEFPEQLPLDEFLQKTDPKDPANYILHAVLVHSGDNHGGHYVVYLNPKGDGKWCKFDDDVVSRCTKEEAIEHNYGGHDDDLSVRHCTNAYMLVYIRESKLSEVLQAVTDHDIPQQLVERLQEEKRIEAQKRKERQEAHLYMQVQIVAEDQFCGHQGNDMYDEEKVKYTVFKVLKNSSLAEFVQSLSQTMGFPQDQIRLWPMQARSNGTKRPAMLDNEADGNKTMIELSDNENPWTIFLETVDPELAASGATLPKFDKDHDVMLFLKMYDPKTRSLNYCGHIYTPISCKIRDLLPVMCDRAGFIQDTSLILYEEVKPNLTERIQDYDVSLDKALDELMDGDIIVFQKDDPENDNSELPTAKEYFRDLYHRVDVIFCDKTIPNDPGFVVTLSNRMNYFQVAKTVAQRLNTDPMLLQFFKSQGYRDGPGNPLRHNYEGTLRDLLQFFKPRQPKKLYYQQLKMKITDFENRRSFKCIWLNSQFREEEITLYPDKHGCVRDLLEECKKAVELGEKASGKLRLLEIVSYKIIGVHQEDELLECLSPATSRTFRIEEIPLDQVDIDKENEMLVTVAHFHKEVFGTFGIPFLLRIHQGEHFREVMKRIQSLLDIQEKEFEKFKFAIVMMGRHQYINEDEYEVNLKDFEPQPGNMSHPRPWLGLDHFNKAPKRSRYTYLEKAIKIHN

Structure (SMILES)	inhibition at 10 µM (BAZ2B (h) bromodomain)	inhibition at 10 µM (FALZ (h) bromodomain)	inhibition at 10 µM (CBX7 (h) chromodomain)	inhibition at 10 µM (LSD1 (h))	inhibition at 10 µM (HDAC5 (h))	% Inhibition of Control Values (MLL2(h) complex)	inhibition at 10 µM (PRMT3 (h))	inhibition at 10 µM (PRMT5 complex (h))	inhibition at 10 µM [1]	inhibition at 10 µM [2]	inhibition at 10 µM [3]	inhibition at 10 µM (USP 14 (h))	inhibition at 10 µM (USP 16 (h))	inhibition at 10 µM (USP 7 (h))	% Control Response [4]	remaining activity at 10 µM (Myeloperoxidase; [6])	Resp Av % (NF-κB; Antagonist, Conc 0.001 μM)	Resp Av % (NF-κB; Antagonist, Conc 0.01 μM)	Resp Av % (NF-κB; Antagonist, Conc 0.1 μM)	Resp Av % (NF-κB; Antagonist, Conc 1 μM)	other results
CC(C)=CCC[C@H](CO)[C@@H]1CC[C@@H](C)c2c1cc(C)c(O)c2O [Compound 1, 7,8,18-trihydroxyserrulat-14-ene]	58%	42%	25%	10%	-3%	6%	22%	8%	6%	5%	6%	1%	11%	-18%	0%	27%	−25%	−5%	0%	17%	% Control Response (Myeloperoxidase; 10 μM, assay year 2014): inhibited the activity; remaining activity at 10 µM (Myeloperoxidase; [5]): 52%; Resp Av % (NF-κB; Antagonist, Conc 10 μM): 103%; IC50 (NF-κB; Homo sapiens, Antagonist): 1.4 µM; IC50 (NF-κB; Homo sapiens, transcription response NF-κB): 1.36 µM; IC50 (NF-κB; transcription response NF-κB): 0.69 µM; EC50 (Hs 729): 2.77 µM; GI50 (Hs 729): 2.67 µM; IC50 (Hs 729): 2.78 µM; Relative cell count (%) Mean (Hs 729; Hs 729, 3.00E+00 microM): 46.0%; Relative cell count (%) Mean (Hs 729; Hs 729, 3.00E+01 microM): 1.0%; Relative cell count (%) Mean (Hs 729; Hs 729, 3.01E−01 microM): 99.4%; Relative cell count (%) Mean (Hs 729; Hs 729, 3.01E−02 microM): 107.0%; Relative cell count (%) Mean (Hs 729; Hs 729, 3.02E−03 microM): 103.0%; Relative cell count (%) Mean (Hs 729; Hs 729, 9.49E+00 microM): 3.2%; Relative cell count (%) Mean (Hs 729; Hs 729, 9.51E−01 microM): 98.9%; Relative cell count (%) Mean (Hs 729; Hs 729, 9.52E−02 microM): 99.9%; Relative cell count (%) Mean (Hs 729; Hs 729, 9.53E−03 microM): 108.7%; Relative cell count (%) Mean (Hs 729; Hs 729, 9.55E−04 microM): 100.6%
CC(C)=CCC[C@@H]1C(O)Oc2c(C)cc(O)c3c2[C@H]1CC[C@H]3C (some centres unmarked) [Compound 2, 5,18-epoxyserrulat-14-en-8,18-diol]	23%	18%	33%	10%	-2%	3%	50%	-8%	4%	-7%	1%	0%	14%	-14%	−1%	1%	−7%	−7%	−3%	10%	remaining activity at 10 µM (Myeloperoxidase; [5]): 5%; Resp Av % (NF-κB; Antagonist, Conc 10 μM): 34%; IC50 (NF-κB; Homo sapiens, Antagonist): > 10 µM; EC50 (Hs 729): 23.3 µM; GI50 (Hs 729): 21.8 µM; IC50 (Hs 729): 23.3 µM
CC(C)=CCC[C@@H]1COc2c(C)cc(O)c3c2[C@H]1CC[C@H]3C [Compound 3, 5,18-epoxy-8-hydroxyserrulat-14-ene]	21%	5%	43%	-3%	-1%	−15%	14%	9%	-1%	3%	0%	-24%	12%	9%	3%	-7%	−16%	−11%	−7%	1%	Resp Av % (NF-κB; Antagonist, Conc 10 μM): −19%; IC50 (NF-κB; Homo sapiens, Antagonist): > 10 µM
CC(C)=CCC[C@H](C)[C@@H]1CC[C@@H](C)c2c1cc(C)c(O)c2O [Compound 4, 7,8-dihydroxyserrulat-14-ene]	–	–	–	–	–	–	–	–	–	–	–	–	–	–	–	–	–	–	–	–	EC50 (Hs 729): 11.9 µM; GI50 (Hs 729): 11.6 µM; IC50 (Hs 729): 11.9 µM
Nc1ncnc2c1ncn2[C@@H]1O[C@H](CSCC[C@H](N)C(=O)O)[C@@H](O)[C@H]1O [SAH]	–	–	–	–	–	–	–	–	–	–	–	–	–	–	–	–	–	–	–	–	IC50 (MLL2(h) complex; read-out: Reference IC50): 24 µM; IC50 (PRMT3 (h); read-out: Reference IC50): 0.86 µM
